Data: PubChem BioAssay (NCI)
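Results reflect a 48-hour exposure of cells in 96-well plates to compound at five concentrations. Here, GI50 denotes the concentration required for 50% inhibition of growth. TGI: concentration producing complete growth inhibition.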

Key:
Experiment in all cases: inhibition of tumour cell growth, NCI panel, 48 h
[1] = tested on: UACC-257 melanoma
[2] = tested on: LOX IMVI melanoma
[3] = tested on: A498 renal
[4] = tested on: UACC-62 melanoma
[5] = tested on: SF-295 CNS
[6] = tested on: KM12 colon
[7] = tested on: HCT-116 colon
[8] = tested on: SF-268 CNS
[9] = tested on: HCC-2998 colon
[10] = tested on: UO-31 renal
[11] = tested on: SW-620 colon
[12] = tested on: SK-MEL-2 melanoma
[13] = tested on: BT-549 breast
[14] = tested on: SK-MEL-5 melanoma
[15] = tested on: M14 melanoma
[16] = tested on: EKVX NSCLC
[17] = tested on: RXF 393 renal
[18] = tested on: MALME-3M melanoma
[19] = tested on: HCT-15 colon
[20] = tested on: COLO 205 colon
[21] = tested on: A549 NSCLC
[22] = tested on: TK-10 renal
[23] = tested on: T-47D breast
[24] = tested on: SR leukemia
[25] = tested on: SN12C renal
[26] = tested on: ACHN renal
[27] = tested on: SNB-19 CNS
[28] = tested on: OVCAR-3 ovarian
[29] = tested on: 786-0 renal
[30] = tested on: NCI/ADR-RES ovarian
[31] = tested on: SK-MEL-28 melanoma
[32] = tested on: NCI-H460 lung
[33] = tested on: SK-OV-3 ovarian
[34] = tested on: NCI-H23 lung
[35] = tested on: HS 578T breast
[36] = tested on: MDA-MB-435
[37] = tested on: CCRF-CEM leukemia
[38] = tested on: DU-145 prostate
[39] = tested on: CAKI-1 renal
[40] = tested on: HL-60(TB) leukemia
[41] = tested on: HT29 colon
[42] = tested on: HOP-92 NSCLC
[43] = tested on: K-562 leukemia
[44] = tested on: NCI-H226 lung
[45] = tested on: OVCAR-5 ovarian
[46] = tested on: HOP-62 NSCLC
[47] = tested on: OVCAR-4 ovarian
[48] = tested on: SNB-75 CNS
[49] = tested on: OVCAR-8 ovarian
[50] = tested on: SF-539 CNS
[51] = tested on: MOLT-4 leukemia
[52] = tested on: U251 CNS
[53] = tested on: NCI-H522 lung
[54] = tested on: MCF7 breast
[55] = tested on: PC-3 prostate
[56] = tested on: MDA-MB-231 breast
[57] = tested on: IGROV1 ovarian
[58] = tested on: RPMI-8226 leukemia

In the case of COc1ncc(-c2ccc3nccc(C#CCCCCC(=O)O)c3c2)cc1NS(=O)(=O)c1ccc(F)cc1F, the GI50 [1] is reported as 0.355 µM, the TGI [1] is reported as 5.92 µM and the GI50 [2] is reported as 0.941 µM. The TGI [2] was 18.9 µM, the GI50 [3] was 0.0408 µM and the TGI [3] was 0.799 µM. It also gave a GI50 [4] of 0.274 µM, a TGI [4] of 3.02 µM and a GI50 [5] of 0.735 µM. It also gave a TGI [5] of 6.45 µM, a GI50 [6] of 2.88 µM and a TGI [6] greater than 100 µM. For the same compound, the GI50 [7] was 6.85 µM, the TGI [7] was greater than 100 µM and the GI50 [8] was 1.17 µM. For the same compound, the TGI [8] was greater than 100 µM, the GI50 [9] was 0.626 µM and the TGI [9] was greater than 100 µM. For the same compound, the GI50 [10] was 0.207 µM, the TGI [10] was 14.1 µM and the GI50 [11] was 1.91 µM. It also gave a TGI [11] greater than 100 µM, a GI50 [12] of 1.6 µM and a TGI [12] of 15.2 µM. It also gave a GI50 [13] of 0.449 µM, a TGI [13] of 8.92 µM and a GI50 [14] of 2.84 µM. For the same compound, the TGI [14] was 15 µM, the GI50 [15] was 1.61 µM and the TGI [15] was greater than 100 µM. It also gave a GI50 [16] of 1.11 µM, a TGI [16] of 45.1 µM and a GI50 [17] of 1.12 µM. It also gave a TGI [17] of 6.02 µM, a GI50 [18] of 0.0761 µM and a TGI [18] of 0.916 µM. It also gave a GI50 [19] of 0.362 µM, a TGI [19] greater than 100 µM and a GI50 [20] of 0.108 µM. For the same compound, the TGI [20] was 30.2 µM, the GI50 [21] was 0.557 µM and the TGI [21] was greater than 100 µM. It also gave a GI50 [22] of 0.0846 µM, a TGI [22] of 9.67 µM and a TGI [23] of 0.0849 µM. For the same compound, the GI50 [24] was 1.67 µM, the TGI [24] was 44.1 µM and the GI50 [25] was 2.55 µM. For the same compound, the TGI [25] was greater than 100 µM, the GI50 [26] was 2.73 µM and the TGI [26] was greater than 100 µM. It also gave a GI50 [27] of 2.05 µM, a TGI [27] of 84.9 µM and a GI50 [28] of 0.733 µM. It also gave a TGI [28] of 23.3 µM, a GI50 [29] of 1.04 µM and a TGI [29] of 17.3 µM. For the same compound, the GI50 [30] was 3.97 µM, the TGI [30] was greater than 100 µM and the GI50 [31] was 0.539 µM. For the same compound, the TGI [31] was greater than 100 µM, the GI50 [32] was 0.324 µM and the TGI [32] was greater than 100 µM. For the same compound, the GI50 [33] was 0.0432 µM, the TGI [33] was 0.657 µM and the GI50 [34] was 2.39 µM. For the same compound, the TGI [34] was greater than 100 µM, the GI50 [35] was 0.0657 µM and the TGI [35] was 2.34 µM. The GI50 [36] was 0.845 µM, the TGI [36] was greater than 100 µM and the GI50 [37] was 1.21 µM. It also gave a TGI [37] greater than 100 µM, a GI50 [38] of 2.09 µM and a TGI [38] greater than 100 µM. For the same compound, the GI50 [39] was 0.819 µM, the TGI [39] was greater than 100 µM and the GI50 [40] was 0.283 µM. It also gave a TGI [40] of 59.1 µM, a GI50 [41] of 0.0826 µM and a TGI [41] greater than 100 µM. For the same compound, the GI50 [42] was 0.0158 µM, the TGI [42] was 0.62 µM and the GI50 [43] was 17.2 µM. It also gave a TGI [43] greater than 100 µM, a GI50 [44] of 4.73 µM and a TGI [44] greater than 100 µM. For the same compound, the GI50 [45] was 0.122 µM, the TGI [45] was greater than 100 µM and the GI50 [46] was 1.16 µM. The TGI [46] was greater than 100 µM, the GI50 [47] was 3.62 µM and the TGI [47] was 83.8 µM. For the same compound, the GI50 [48] was 0.0199 µM, the TGI [48] was 0.98 µM and the GI50 [49] was 2.36 µM. It also gave a TGI [49] greater than 100 µM, a GI50 [50] of 0.492 µM and a TGI [50] of 5.87 µM. For the same compound, the GI50 [51] was 0.52 µM, the TGI [51] was 33.5 µM and the GI50 [52] was 0.562 µM. The TGI [52] was 27.8 µM, the GI50 [53] was 1.25 µM and the TGI [53] was greater than 100 µM. The GI50 [54] was 0.015 µM, the TGI [54] was greater than 100 µM and the GI50 [55] was 0.548 µM. For the same compound, the TGI [55] was greater than 100 µM.
Work on COc1cc(/C=C/C(=O)Nc2ccc3c(c2)/C(=C\c2cccn2C)C(=O)N3)cc(OC)c1OC yielded a GI50 [1] of 10.1 µM, a TGI [1] of 31.2 µM and a GI50 [2] of 4.21 µM. The TGI [2] was 20.5 µM, the GI50 [3] was 2.65 µM and the TGI [3] was 17.6 µM. It also gave a GI50 [4] of 3.45 µM, a TGI [4] of 33.7 µM and a GI50 [5] of 5.15 µM. For the same compound, the TGI [5] was 22 µM, the GI50 [6] was 3.2 µM and the TGI [6] was 12.9 µM. It also gave a GI50 [7] of 4.68 µM, a TGI [7] of 29.2 µM and a GI50 [8] of 8.19 µM. It also gave a TGI [8] of 35.9 µM, a GI50 [9] of 5.34 µM and a TGI [9] of 20.9 µM. For the same compound, the GI50 [10] was 3.47 µM, the TGI [10] was 33.3 µM and the GI50 [11] was 11.4 µM. The TGI [11] was 46.5 µM, the GI50 [56] was 2.3 µM and the TGI [56] was 17.8 µM. For the same compound, the GI50 [13] was 6.33 µM, the TGI [13] was 24.9 µM and the GI50 [14] was 1.92 µM. For the same compound, the TGI [14] was 6.68 µM, the GI50 [15] was 6.7 µM and the TGI [15] was 45.7 µM. It also gave a GI50 [17] of 4.99 µM, a TGI [17] of 19.7 µM and a GI50 [18] of 7.34 µM. For the same compound, the TGI [18] was 27 µM, the GI50 [19] was 3.83 µM and the TGI [19] was greater than 100 µM. The GI50 [20] was 3.51 µM, the TGI [20] was 14.2 µM and the GI50 [21] was 4.94 µM. The TGI [21] was greater than 100 µM, the GI50 [22] was 3.68 µM and the TGI [22] was 18.1 µM. It also gave a GI50 [23] of 1.59 µM, a TGI [23] of 13.9 µM and a GI50 [24] of 1.91 µM. For the same compound, the TGI [24] was 48.9 µM, the GI50 [25] was 3.17 µM and the TGI [25] was 59.8 µM. It also gave a GI50 [26] of 6.05 µM, a TGI [26] of 53.9 µM and a GI50 [27] of 3.89 µM. For the same compound, the TGI [27] was greater than 100 µM, the GI50 [28] was 5.5 µM and the TGI [28] was 22.3 µM. It also gave a GI50 [29] of 8.69 µM, a TGI [29] of 98.9 µM and a GI50 [30] of 67.7 µM. For the same compound, the TGI [30] was greater than 100 µM, the GI50 [57] was 9.12 µM and the TGI [57] was 70.9 µM. It also gave a GI50 [31] of 4.03 µM, a TGI [31] of 17.7 µM and a GI50 [32] of 4.52 µM. For the same compound, the TGI [32] was 76.8 µM, the GI50 [33] was 8.35 µM and the TGI [33] was 58.8 µM. For the same compound, the GI50 [34] was 5.01 µM, the TGI [34] was 27.2 µM and the GI50 [35] was 3.34 µM. It also gave a TGI [35] greater than 100 µM, a GI50 [36] of 6.41 µM and a TGI [36] of 31.4 µM. For the same compound, the GI50 [37] was 2.47 µM, the TGI [37] was 33.5 µM and the GI50 [38] was 7.9 µM. For the same compound, the TGI [38] was greater than 100 µM, the GI50 [39] was 4.95 µM and the TGI [39] was greater than 100 µM. It also gave a GI50 [40] of 2.48 µM, a TGI [40] of 6.45 µM and a GI50 [41] of 3.45 µM. The TGI [41] was 16.7 µM, the GI50 [42] was 1.54 µM and the TGI [42] was 8.46 µM. The GI50 [43] was 3.06 µM, the TGI [43] was greater than 100 µM and the GI50 [44] was 8.14 µM. It also gave a TGI [44] of 32 µM, a GI50 [45] of 16.6 µM and a TGI [45] of 35.2 µM. For the same compound, the GI50 [46] was 3.71 µM, the TGI [46] was 32 µM and the GI50 [47] was 4.43 µM. The TGI [47] was greater than 100 µM, the GI50 [58] was 1.69 µM and the TGI [58] was 4.04 µM. The GI50 [48] was 2.15 µM, the TGI [48] was 18.5 µM and the GI50 [49] was 3.75 µM. The TGI [49] was greater than 100 µM, the GI50 [50] was 5.15 µM and the TGI [50] was 19.8 µM. For the same compound, the GI50 [51] was 4 µM, the TGI [51] was 82.4 µM and the GI50 [52] was 3.41 µM. It also gave a TGI [52] of 20 µM, a GI50 [53] of 2.41 µM and a TGI [53] of 11.7 µM. The GI50 [54] was 1.15 µM and the TGI [54] was 6.7 µM.
